# Assay results as given in ChEMBL document CHEMBL1201862, “PubChem BioAssay data set” (2004).
#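 Test compounds were applied to cells in 96-well plates for 48 hours at 5 doses. Abbreviation: GI50, concentration required for 50% inhibition of growth.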 Active and inactive are the calls of the source. Rule as the data show it: active = GI50 up to about 1.1 µM and inactive = higher.
# Columns and labels:
# Test in all cases: inhibition of tumour cell growth, NCI panel, 48 h
# [1] = system: 786-0
# [2] = system: A498
# [3] = system: A549
# [4] = system: ACHN
# [5] = system: BT-549
# [6] = system: CAKI-1
# [7] = system: CCRF-CEM
# [8] = system: COLO 205
# [9] = system: DU-145
# [10] = system: EKVX
# [11] = system: HCC 2998
# [12] = system: HCT-116
# [13] = system: HCT-15
# [14] = system: HL-60
# [15] = system: HOP-62
# [16] = system: HOP-92
# [17] = system: HT-29
# [18] = system: Hs-578T
# [19] = system: IGROV-1
# [20] = system: K562
# [21] = system: KM12
# [22] = system: LOX IMVI
# [23] = system: M14
# [24] = system: MCF7
# [25] = system: MDA-MB-231
# [26] = system: MDA-MB-435
# [27] = system: MDA-N
# [28] = system: MOLT-4
# [29] = system: Malme-3M
# [30] = system: NCI-H226
# [31] = system: NCI-H23
# [32] = system: NCI-H460
# [33] = system: NCI-H522
# [34] = system: NCI/ADR-RES
# [35] = system: OVCAR-3
# [36] = system: OVCAR-4
# [37] = system: OVCAR-5
# [38] = system: OVCAR-8
# [39] = system: PC-3
# [40] = system: RPMI-8226
# [41] = system: RXF 393
# [42] = system: SF-268
# [43] = system: SF-295
# [44] = system: SF-539
# [45] = system: SK-MEL-28
# [46] = system: SK-MEL-2
# [47] = system: SK-MEL-5
# [48] = system: SK-OV-3
# [49] = system: SN12C
# [50] = system: SNB-19
# [51] = system: SNB-75
# [52] = system: SR
# [53] = system: SW-620
# [54] = system: T47D
# [55] = system: TK-10
# [56] = system: U-251
# [57] = system: UACC-257
# [58] = system: UACC-62
# [59] = system: UO-31
compound,measurement,setting,value
CC(=O)c1c(C)cc2cccc(OC3OC(CO)C(O)C(O)C3O)c2c1O.CC1OC(O)C(O)C(O)C1O (configuration not stated),GI50,[1],> 100 µM (inactive)
same,GI50,[2],> 100 µM (inactive)
same,GI50,[3],> 100 µM (inactive)
same,GI50,[4],> 100 µM (inactive)
same,GI50,[5],> 100 µM (inactive)
same,GI50,[6],> 100 µM (inactive)
same,GI50,[7],> 100 µM (inactive)
same,GI50,[8],> 100 µM (inactive)
same,GI50,[9],> 100 µM (inactive)
same,GI50,[10],> 100 µM (inactive)
same,GI50,[11],> 100 µM (inactive)
same,GI50,[12],> 100 µM (inactive)
same,GI50,[13],> 100 µM
same,GI50,[14],> 100 µM (inactive)
same,GI50,[15],> 100 µM (inactive)
same,GI50,[16],> 100 µM (inactive)
same,GI50,[17],> 100 µM (inactive)
same,GI50,[18],> 100 µM (inactive)
same,GI50,[19],> 100 µM (inactive)
same,GI50,[20],> 100 µM (inactive)
same,GI50,[21],> 100 µM (inactive)
same,GI50,[22],> 100 µM (inactive)
same,GI50,[23],> 100 µM (inactive)
same,GI50,[24],> 100 µM (inactive)
same,GI50,[25],> 100 µM (inactive)
same,GI50,[26],> 100 µM (inactive)
same,GI50,[27],> 100 µM (inactive)
same,GI50,[28],> 100 µM (inactive)
same,GI50,[29],> 100 µM (inactive)
same,GI50,[30],> 100 µM (inactive)
same,GI50,[31],> 100 µM (inactive)
same,GI50,[32],> 100 µM (inactive)
same,GI50,[33],> 100 µM (inactive)
same,GI50,[34],> 100 µM (inactive)
same,GI50,[35],> 100 µM (inactive)
same,GI50,[36],> 100 µM (inactive)
same,GI50,[37],> 100 µM (inactive)
same,GI50,[38],> 100 µM (inactive)
same,GI50,[39],> 100 µM (inactive)
same,GI50,[40],> 100 µM (inactive)
same,GI50,[41],> 100 µM (inactive)
same,GI50,[42],> 100 µM (inactive)
same,GI50,[43],> 100 µM (inactive)
same,GI50,[44],> 100 µM (inactive)
same,GI50,[45],> 100 µM (inactive)
same,GI50,[46],> 100 µM (inactive)
same,GI50,[47],> 100 µM (inactive)
same,GI50,[48],> 100 µM (inactive)
same,GI50,[49],> 100 µM (inactive)
same,GI50,[50],> 100 µM (inactive)
same,GI50,[51],> 100 µM (inactive)
same,GI50,[52],> 100 µM (inactive)
same,GI50,[53],> 100 µM (inactive)
same,GI50,[54],> 100 µM (inactive)
same,GI50,[55],> 100 µM (inactive)
same,GI50,[56],> 100 µM (inactive)
same,GI50,[57],> 100 µM (inactive)
same,GI50,[58],> 100 µM (inactive)
CC(C)[Si]1(C(C)C)OCC2OC(n3cnc4c(N)ncnc43)C(N)C2O[Si](C(C)C)(C(C)C)O1 (configuration not stated),GI50,[1],5.11 µM (inactive)
same,GI50,[2],13.9 µM (inactive)
same,GI50,[3],5.58 µM (inactive)
same,GI50,[4],3.44 µM (inactive)
same,GI50,[5],6.41 µM (inactive)
same,GI50,[6],11 µM (inactive)
same,GI50,[7],9.29 µM (inactive)
same,GI50,[8],5.68 µM (inactive)
same,GI50,[9],11.9 µM (inactive)
same,GI50,[10],17.7 µM (inactive)
same,GI50,[11],4.79 µM (inactive)
same,GI50,[12],4.14 µM (inactive)
same,GI50,[13],6.9 µM
same,GI50,[14],3.78 µM (inactive)
same,GI50,[15],17.2 µM (inactive)
same,GI50,[16],11.8 µM (inactive)
same,GI50,[17],4.6 µM (inactive)
same,GI50,[18],11.8 µM (inactive)
same,GI50,[19],7.33 µM (inactive)
same,GI50,[20],3.51 µM (inactive)
same,GI50,[21],4.1 µM (inactive)
same,GI50,[22],5.75 µM (inactive)
same,GI50,[23],8.45 µM (inactive)
same,GI50,[24],2.55 µM (inactive)
same,GI50,[25],13.7 µM (inactive)
same,GI50,[26],6.75 µM (inactive)
same,GI50,[27],6.32 µM (inactive)
same,GI50,[28],2.08 µM (inactive)
same,GI50,[29],17.8 µM (inactive)
same,GI50,[30],9.66 µM (inactive)
same,GI50,[31],9.16 µM (inactive)
same,GI50,[32],4.07 µM (inactive)
same,GI50,[33],8.04 µM (inactive)
same,GI50,[34],5.21 µM (inactive)
same,GI50,[35],5.22 µM (inactive)
same,GI50,[36],8.09 µM (inactive)
same,GI50,[37],16.8 µM (inactive)
same,GI50,[38],8.24 µM (inactive)
same,GI50,[39],3.16 µM (inactive)
same,GI50,[40],2.22 µM (inactive)
same,GI50,[41],8.97 µM (inactive)
same,GI50,[42],12 µM (inactive)
same,GI50,[43],3.65 µM (inactive)
same,GI50,[44],11.6 µM (inactive)
same,GI50,[45],25.9 µM (inactive)
same,GI50,[46],6.22 µM (inactive)
same,GI50,[47],2.06 µM (inactive)
same,GI50,[48],24 µM (inactive)
same,GI50,[49],10.1 µM (inactive)
same,GI50,[50],4.88 µM (inactive)
same,GI50,[51],4.69 µM (inactive)
same,GI50,[52],2.42 µM (inactive)
same,GI50,[53],6.41 µM (inactive)
same,GI50,[54],8.15 µM (inactive)
same,GI50,[55],10.1 µM (inactive)
same,GI50,[56],8.32 µM (inactive)
same,GI50,[57],5.73 µM (inactive)
same,GI50,[58],10.1 µM (inactive)
same,GI50,[59],3.47 µM (inactive)
